Reference: publication PMC3639484 (Journal of chromatography. A, 2013)

Assay: HILIC/SALT
Type: physicochemical
Settings: isocratic acetonitrile 0%, 10%, 20%, 30%, 40%, 50% and 60% in 0.2% aq. H3PO4, 30 °C

Ac-KWKSFLKTFSKAKKKKLKTLLKAISK-NH2 [Peptide D14]
retention on Penta-HILIC column: No retention
